The test has as its target NP-1 (Homo sapiens, UniProt O14786). As to the kind of experiment: Biotinylated-VEGF-A165 (bt-VEGF-A165) binding to NP-1. To be noted: for inhibition at 3 µM: read-out: Screen (% inhibition at 3 μM); for inhibition at 30 µM: read-out: Screen (% inhibition at 30 μM). How it is done:
Human prostate carcinoma DU145 cells were cultured in growth medium (RPMI 1640 containing 10% FBS and L-glutamine). DU145 cells were seeded at the density of 2×10^4 cells per well (96-well plates) in 0.1 ml growth medium and transfected with adenovirus vectors containing the full-length open-reading frame of human NP-1. The Ad.NP-1-transfected cells grew for 2 days prior to a binding assay.
Confluent Ad.NP-1-transfected cells in 96-well plates were washed twice with phosphate-buffered saline (PBS). The various concentrations of compounds diluted in binding medium (Dulbecco's modified Eagle's medium, 25 mM HEPES pH 7.3 containing 0.1% BSA) were added, followed by addition of 2 nM of bt-VEGF-A165. After 2 h of incubation at room temperature, the medium was aspirated and washed three times with PBS. The bound bt-VEGF-A165 to NP-1 was detected by streptavidin-horseradish peroxidase conjugates and the enzyme substrate, and measured using a Tecan Genios plate reader at A450 nm with a reference wavelength at A595 nm. Non-specific binding was determined in the presence of 100-fold excess unlabelled VEGF-A165.
The 96-well plates were pre-coated with NP1 protein at 3 μg/ml overnight at 4° C. On the following day, the plates were treated with blocking buffer (PBS containing 1% BSA) and washed three times with wash buffer (PBS containing 0.1% Tween-20). The various concentrations of compounds diluted in PBS containing 1% DMSO were added, followed by addition of 0.25 nM of bt-VEGF-A165. After 2 h of incubation at room temperature, the plates were washed three times with wash buffer. The bound bt-VEGF-A165 to NP-1 was detected by streptavidin-horseradish peroxidase conjugates and the enzyme substrate, and measured using a Tecan Genios plate reader at A450 nm with a reference wavelength at A595 nm. Nonspecific binding was determined in the absence of NP-1 coated wells of the plates.

The values that follow come from patent US20120201749A1, “NP-1 Antagonists and Their Therapeutic Use” (priority 2009, published 2012).

Sequence of NP-1 (O14786 22-923): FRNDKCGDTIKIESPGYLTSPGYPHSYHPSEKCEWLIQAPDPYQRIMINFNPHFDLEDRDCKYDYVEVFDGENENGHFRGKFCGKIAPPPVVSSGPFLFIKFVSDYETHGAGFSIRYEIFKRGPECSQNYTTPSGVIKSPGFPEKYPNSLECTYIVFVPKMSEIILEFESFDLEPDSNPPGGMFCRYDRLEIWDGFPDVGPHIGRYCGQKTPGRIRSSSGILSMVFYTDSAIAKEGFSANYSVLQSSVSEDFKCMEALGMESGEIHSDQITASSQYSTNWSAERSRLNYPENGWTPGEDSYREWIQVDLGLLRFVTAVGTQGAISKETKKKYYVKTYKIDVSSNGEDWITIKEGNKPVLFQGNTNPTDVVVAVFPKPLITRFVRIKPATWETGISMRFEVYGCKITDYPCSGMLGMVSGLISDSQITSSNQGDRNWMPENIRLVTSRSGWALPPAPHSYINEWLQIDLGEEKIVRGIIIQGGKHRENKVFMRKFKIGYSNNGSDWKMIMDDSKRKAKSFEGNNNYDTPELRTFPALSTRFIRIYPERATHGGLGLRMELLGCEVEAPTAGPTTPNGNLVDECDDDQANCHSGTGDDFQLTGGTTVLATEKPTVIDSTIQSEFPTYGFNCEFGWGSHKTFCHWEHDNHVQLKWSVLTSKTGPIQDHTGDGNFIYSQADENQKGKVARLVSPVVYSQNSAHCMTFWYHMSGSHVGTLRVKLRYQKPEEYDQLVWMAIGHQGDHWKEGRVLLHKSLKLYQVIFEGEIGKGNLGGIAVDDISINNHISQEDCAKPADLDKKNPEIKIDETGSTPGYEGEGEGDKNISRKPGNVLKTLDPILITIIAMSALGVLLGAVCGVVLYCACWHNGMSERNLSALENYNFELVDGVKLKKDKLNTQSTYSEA

The IC50 is the concentration needed to halve the response being measured. High values mean weaker potency, low ones greater potency. A word on the inhibition: it is the drop in the measured response relative to a control, in per cent. Take `N=C(N)NCCC[C@H](NC(=O)c1sccc1NS(=O)(=O)c1cc(-c2cccc(CNCc3ncc[nH]3)c2)cc2c1OCC2)C(=O)O` [Compound 37]: the IC50 was found to be 637 nM. For the same compound, the inhibition at 3 µM (3 μM compound) amounted to 68%. Also, the inhibition at 30 µM (30 μM compound) was found to be 90%.
As to `N=C(N)NCCC[C@H](NC(=O)c1sccc1NS(=O)(=O)c1cc(-c2cccc(CN3CCC(N4CCOCC4)CC3)c2)cc2c1OCC2)C(=O)O` [Compound 38, (S)-5-Guanidino-2-[(3-{5-[3-(4-morpholin-4-yl-piperidin-1-ylmethyl)-phenyl]-2,3-dihydro-benzofuran-7-sulfonylamino}-thiophene-2-carbonyl)-amino]-pentanoic acid], the IC50 is 295 nM. Also, for the setting “3 μM compound, 3 µM”, the “Screen (% inhibition at 3 μM)” value amounted to 68%. Further, the “Screen (% inhibition at 30 μM)” value (30 μM compound, 30 µM) is given as 93%.
For the compound `N=C(N)NCCC[C@H](NC(=O)c1sccc1NS(=O)(=O)c1cc(-c2ccccc2CNCc2ccc(N)nc2)cc2c1OCC2)C(=O)O` [Compound 39, (S)-2-({3-[5-(2-{[(6-Amino-pyridin-3-ylmethyl)-amino]-methyl}-phenyl)-2,3-dihydro-benzofuran-7-sulfonylamino]-thiophene-2-carbonyl}-amino)-5-guanidino-pentanoic acid], for the setting “3 μM compound”, the inhibition at 3 µM was 61%.
Still for that read-out and setting: for `N=C(N)NCCC[C@H](NC(=O)c1sccc1NS(=O)(=O)c1cc(-c2cccc(CNCc3ccc(N)nc3)c2)cc2c1OCC2)C(=O)O` [Compound 40, (S)-2-({3-[5-(3-{[(6-Amino-pyridin-3-ylmethyl)-amino]-methyl}-phenyl)-2,3-dihydro-benzofuran-7sulfonylamino]-thiophene-2-carbonyl}-amino)-5-guanidino-pentanoic acid] the value was 56%; for `Cc1[nH]ncc1CCCNCc1cccc(-c2cc3c(c(S(=O)(=O)Nc4ccsc4C(=O)N[C@@H](CCCNC(=N)N)C(=O)O)c2)OCC3)c1` [Compound 41, (S)-5-Guanidino-2-({3-[5-(3-{[3-(5-methyl-1H-pyrazol-4-yl)-propylamino]-methyl}-phenyl)-2,3-dihydro-benzofuran-7-sulfonylamino]-thiophene-2-carbonyl}-amino)-pentanoic acid], 52%.
Regarding `N=C(N)NCCC[C@H](NC(=O)c1sccc1NS(=O)(=O)c1cc(-c2cccc(CNCCc3cn[nH]c3)c2)cc2c1OCC2)C(=O)O` [Compound 42, (S)-5-Guanidino-2-({3-[5-(3-{[2-(1H-pyrazol-4-yl)-ethylamino]-methyl}-phenyl)-2,3-dihydro-benzofuran-7-sulfonylamino]-thiophene-2-carbonyl}-amino)-pentanoic acid], the inhibition at 3 µM (3 μM compound) was determined as 78%.
For `N=C(N)NCCC[C@H](NC(=O)c1sccc1NS(=O)(=O)c1cc(-c2cccc(CNCc3ccc(O)nc3)c2)cc2c1OCC2)C(=O)O` [Compound 43, (S)-5-Guanidino-2-({3-[5-(3-{[(6-hydroxy-pyridin-3-ylmethyl)-amino]-methyl}-phenyl)-2,3-dihydro-benzofuran-7-sulfonylamino]-thiophene-2-carbonyl}-amino)-pentanoic acid], the inhibition at 3 µM (3 μM compound) is 82%.
`Cc1ccc(NCCCNCc2cccc(-c3cc4c(c(S(=O)(=O)Nc5ccsc5C(=O)N[C@@H](CCCNC(=N)N)C(=O)O)c3)OCC4)c2)nc1` [Compound 44, (S)-5-Guanidino-2-({3-[5-(3-{[3-(5-methyl-pyridin-2-ylamino)-propylamino]-methyl}-phenyl)-2,3-dihydro-benzofuran-7-sulfonylamino]-thiophene-2-carbonyl}-amino)-pentanoic acid]: for the setting “3 μM compound”, the inhibition at 3 µM is 78%.
As for `Cc1ccnc(NCCNCc2cccc(-c3cc4c(c(S(=O)(=O)Nc5ccsc5C(=O)N[C@@H](CCCNC(=N)N)C(=O)O)c3)OCC4)c2)c1` [Compound 45, (S)-5-Guanidino-2-({3-[5-(3-{[2-(4-methyl-pyridin-2-ylamino)-ethylamino]-methyl}-phenyl)-2,3-dihydro-benzofuran-7-sulfonylamino]-thiophene-2-carbonyl}-amino)-pentanoic acid], the inhibition at 3 µM (3 μM compound) was 81%.
For `Cc1[nH]ncc1CCCNCc1ccccc1-c1cc2c(c(S(=O)(=O)Nc3ccsc3C(=O)N[C@@H](CCCNC(=N)N)C(=O)O)c1)OCC2` [Compound 46, (S)-5-Guanidino-2-({3-[5-(2-{[3-(5-methyl-1H-pyrazol-4-yl)-propylamino]-methyl}-phenyl)-2,3-dihydro-benzofuran-7-sulfonylamino]-thiophene-2-carbonyl}-amino)-pentanoic acid], for the setting “3 μM compound”, the inhibition at 3 µM came to 65%.
Turning to `N=C(N)NCCC[C@H](NC(=O)c1sccc1NS(=O)(=O)c1cc(-c2ccccc2CNCCc2cn[nH]c2)cc2c1OCC2)C(=O)O` [Compound 47, (S)-5-Guanidino-2-({3-[5-(2-{[2-(1H-pyrazol-4-yl)-ethylamino]-methyl}-phenyl)-2,3-dihydro-benzofuran-7-sulfonylamino]-thiophene-2-carbonyl}-amino)-pentanoic acid], the IC50 is 130 nM. Besides, under “3 μM compound”, the inhibition at 3 µM turned out to be 86%.
`Cc1cc(CNCc2cccc(-c3cc4c(c(S(=O)(=O)Nc5ccsc5C(=O)N[C@@H](CCCNC(=N)N)C(=O)O)c3)OCC4)c2)no1` [Compound 48, (S)-5-Guanidino-2-({3-[5-(3-{[(5-methyl-isoxazol-3-ylmethyl)-amino]-methyl}-phenyl)-2,3-dihydro-benzofuran-7-sulfonylamino]-thiophene-2-carbonyl}-amino)-pentanoic acid] gave an IC50 of 54 nM. The inhibition at 3 µM (3 μM compound) turned out to be 86%. For the same compound, where the note is “30 μM compound”, the inhibition at 30 µM was found to be 99%.
As for `N=C(N)NCCC[C@H](NC(=O)c1sccc1NS(=O)(=O)c1cc(-c2ccccc2CNCc2ccc(O)nc2)cc2c1OCC2)C(=O)O` [Compound 49, (S)-5-Guanidino-2-({3-[5-(2-{[(6-hydroxy-pyridin-3-ylmethyl)-amino]-methyl}-phenyl)-2,3-dihydro-benzofuran-7-sulfonylamino]-thiophene-2-carbonyl}-amino)-pentanoic acid], the inhibition at 3 µM (3 μM compound) turned out to be 52%.
For `Cc1ccc(NCCCNCc2ccccc2-c2cc3c(c(S(=O)(=O)Nc4ccsc4C(=O)N[C@@H](CCCNC(=N)N)C(=O)O)c2)OCC3)nc1` [Compound 50, (S)-5-Guanidino-2-({3-[5-(2-{[3-(5-methyl-pyridin-2-ylamino)-propylamino]-methyl}-phenyl)-2,3-dihydro-benzofuran-7-sulfonylamino]-thiophene-2-carbonyl}-amino)-pentanoic acid], the inhibition at 3 µM (3 μM compound) was 82%.
Compound `N=C(N)NCCC[C@H](NC(=O)c1sccc1NS(=O)(=O)c1cc(-c2cccc(CNCc3cn[nH]c3)c2)cc2c1OCC2)C(=O)O` [Compound 51, (S)-5-Guanidino-2-({3-[5-(3-{[(1H-pyrazol-4-ylmethyl)-amino]-methyl}-phenyl)-2,3-dihydro-benzofuran-7-sulfonylamino]-thiophene-2-carbonyl}-amino)-pentanoic acid] displayed an IC50 of 740 nM. For the same compound, the inhibition at 3 µM (3 μM compound) was found to be 94%.
As to `N=C(N)NCCC[C@H](NC(=O)c1sccc1NS(=O)(=O)c1cc(-c2cccc(CNCc3cc[nH]n3)c2)cc2c1OCC2)C(=O)O` [Compound 52, (S)-5-Guanidino-2-({3-[5-(3-{[(1H-pyrazol-3-ylmethyl)-amino]-methyl}-phenyl)-2,3-dihydro-benzofuran-7-sulfonylamino]-thiophene-2-carbonyl}-amino)-pentanoic acid], where the note is “3 μM compound”, the inhibition at 3 µM came out at 77%.
Still for that read-out and setting: to `N=C(N)NCCC[C@H](NC(=O)c1sccc1NS(=O)(=O)c1cc(-c2ccccc2CNCc2cc[nH]n2)cc2c1OCC2)C(=O)O` [Compound 53, (S)-5-Guanidino-2-({3-[5-(2-{[(1H-pyrazol-3-ylmethyl)-amino]-methyl}-phenyl)-2,3-dihydro-benzofuran-7-sulfonylamino]-thiophene-2-carbonyl}-amino)-pentanoic acid] belongs 54%; to `N=C(N)NCCC[C@H](NC(=O)c1sccc1NS(=O)(=O)c1cc(-c2ccccc2CNCc2cn[nH]c2)cc2c1OCC2)C(=O)O` [Compound 54, (S)-5-Guanidino-2-({3-[5-(2-{[(1H-pyrazol-4-ylmethyl)-amino]-methyl}-phenyl)-2,3-dihydro-benzofuran-7-sulfonylamino]-thiophene-2-carbonyl}-amino)-pentanoic acid], 70%.
As for `N=C(N)NCCC[C@H](NC(=O)c1sccc1NS(=O)(=O)c1cc(-c2cccc(CN3CCN(CCO)CC3)c2)cc2c1OCC2)C(=O)O` [Compound 55, (S)-5-Guanidino-2-{[3-(5-{3-[4-(2-hydroxy-ethyl)-piperazin-1-ylmethyl]-phenyl}-2,3-dihydro-benzofuran-7-sulfonylamino)-thiophene-2-carbonyl]-amino}-pentanoic acid], the IC50 worked out at 525 nM. For the same compound, for the setting “3 μM compound”, the inhibition at 3 µM was found to be 71%.
